Experimental data reported in patent EP4166560A1, “TRI-SUBSTITUTED TETRAHYDROFURANS AND USE THEREOF” (Consejo Superior de Investigaciones Cientificas, priority 2021, dated 2023).
Values joined by “and” are separate entries in the source; they are usually repeats but may differ in a detail not shown here. Equal entries are not always repeated. “Also recorded” adds a separate entry of the source. Numbered stars: 1 amine (or outer) side, 2 acyl side, 3 side chain; on linkers, the order of the positions; unused ones are H or OH. Bridge positions count the residues as written; N and C are the ends. Square brackets hold non-standard residues; d marks the D form. Peptide text beside a SMILES is read from it. * marks the point of attachment. X1 = CC[C@H](C)[C@@H](N[*:1])[C@@H](O)CC(=O)O[C@H](C(=O)[C@H](C)C(=O)[*:2])C(C)C; NMeY = CN[C@@H](Cc1ccc(O)cc1)C(=O)O; dNMeL = CN[C@H](CC(C)C)C(=O)O; Pyruvoyl = CC(=O)C(=O)*

Columns and labels:
[1] = test system: TGEV; experiment: Quantitation of TGEV-induced cell death in ST cells by real-time automated microscopy (Cytotox); type: cell-based, transmissible gastroenteritis virus (TGEV); conditions: for EC50: read-out: EC50 on TGEV-induced cell death; for activity against TGEV (reversion of TGEV-induced cell death): MOI 0.01, 48 h, result in words; for bottom plateau, dead cells: TGEV MOI 0.01, 48 h, dose-response fit
[2] = test system: SARS-CoV-2; conditions: White et al. 2021; result in words; cited from earlier work
[3] = test system: TGEV; experiment: TGEV viral titration by plaque assay in ST cells; type: cell-based, transmissible gastroenteritis virus (TGEV)
Experimental: ST cells were inoculated with TGEV at a MOI of 0.01 infectious particles per cell and, after 24 h of incubation under standard culture conditions, the culture medium was subjected to the plaque assay, which determines the number of viral infectious particles present per volume unit (viral titer). A range of SPL-0 concentrations was tested in order to obtain a dose-response curve. The TGEV titer in the harvested medium decreased as the SPL-0 dose increased (Figure 6).

[4] = test system: SARS-CoV-2; experiment: SARS-CoV-2 infection quantified by immunofluorescence (flow cytometry) in VeroE6 cells; type: cell-based
Experimental: (§1) To determine the activity of SPL-0 against SARS-CoV-2, a dose-response assay was performed in the range of 0.2 µM to 50 µM using VeroE6 kidney cells from African green monkey (Cercopithecus aethiops). Cell cultures were inoculated with SARS-CoV-2 at an MOI of 0.01 infectious particles per cell and analyzed after 48 h. The percentage of infected cells was obtained by flow cytometry using a monoclonal antibody against the virus spike protein S as well as a fluorescently labelled secondary antibody (immunofluorescence). The percentage of infected cells decreased as the SPL-0 increased (Figure 8a). […] In addition, for each dose, cell viability assays were performed in the absence of virus. For this, the MTT assay, a standard procedure for determining cell metabolic activity, was used.

[5] = test system: CVB3; experiment: CVB3 viral titration by plaque assay in HeLa cells; type: cell-based, coxsackievirus B3 (CVB3)
Experimental: CVB3 belongs to the picornavirus family. […] Coronaviruses and picornaviruses share certain broad features. Both are plus-strand RNA viruses. However, they are otherwise largely unrelated virus groups. The effect of SPL-0 on CVB3 infection was determined in human HeLa cells. HeLa cells were inoculated with CVB3 at a MOI of 0.01 infectious particles per cell and, after 24 h of incubation under standard culture conditions, the medium was subjected to the plaque assay, which determines the number of viral infectious particles present per volume unit (viral titer). A range of SPL-0 concentrations was to obtain a dose-response curve. The CVB3 titer in the harvested medium decreased as the SPL-0 dose increased (Figure 10). […] Therefore, the antiviral action of SPL-0 extends beyond coronaviruses.

[6] = in vitro; conditions: african green monkey, veroe6 cells
[7] = test system: MHV; experiment: MHV RNA quantitation by RT-qPCR in CCL9.1 cells; type: cell-based, murine hepatitis virus (MHV)
[8] = test system: TGEV; experiment: TGEV RNA quantitation by RT-qPCR in ST cells; type: cell-based, transmissible gastroenteritis virus (TGEV)
Experimental: ST cells were inoculated with TGEV at a MOI of 0.01 infectious particles per cell and, after 24 h of incubation under standard culture conditions, total RNA was extracted and TGEV RNA was quantified by RT-qPCR. A range of SPL-0 concentrations was tested in order to obtain a dose-response curve. The amount of TGEV RNA decreased as the SPL-0 dose increased (Figure 7).

[9] = test system: swine testis (ST) cells; conditions: dose range 2-100 µM
[10] = in vitro; conditions: pig, st cells
[11] = test system: SARS-CoV-2; experiment: SARS-CoV-2 infection quantified by immunofluorescence (flow cytometry) in A549 cells; type: cell-based
Experimental: as §1, with “The” for “To determine the”, “SARS-CoV-2 was determined in A549 human lung cells, which provide a biologically relevant model, since that lungs are a primary target of SARS-CoV-2. For this,” for “SARS-CoV-2,”, “µM.” for “µM using VeroE6 kidney cells from African green monkey (Cercopithecus aethiops).”, “72” for “48”, “9a).” for “8a).”, “assay” for “assay, a standard procedure for determining cell metabolic activity,”

[12] = test system: A549 human lung cells; conditions: MTT, 0.2 µM to 50 µM
[13] = in vitro; conditions: human, a549 cells
[14] = test system: OC43; experiment: OC43 RNA quantitation by RT-qPCR in BHK-21 cells; type: cell-based, human coronavirus OC43
[15] = test system: VeroE6 kidney cells; conditions: MTT, 0.2 µM to 50 µM
[16] = Alphacoronavirus 1, ST cells, MOI 0.01, 48 h after viral inoculation
[17] = relative to untreated control, dose-response fit

C[C@H]1OC[C@@H](c2ccccc2)[C@H]1[Si](c1ccccc1)(c1ccccc1)c1ccccc1 [SPL-4]
EC50 [1, 16]: 15.8 µM | activity against TGEV (reversion of TGEV-induced cell death) ([1]; ST cells): partially reverts TGEV-induced cell death; also recorded: Active | bottom plateau, dead cells ([1]; ST cells): 11.4%

C[C@@H]1O[C@@H](Cc2ccccc2)CC1[Si](C)(C)C (some centres unmarked) [SPL-5]
activity against TGEV (reversion of TGEV-induced cell death) ([1]; ST cells): did not revert TGEV-induced cell death; also recorded: Inactive

CC[C@H](C)[C@H]1NC(=O)[C@@H](NC(=O)[C@@H](CC(C)C)N(C)C(=O)[C@@H]2CCCN2C(=O)C(C)=O)[C@@H](C)OC(=O)[C@H](Cc2ccc(OC)cc2)N(C)C(=O)[C@@H]2CCCN2C(=O)[C@H](CC(C)C)NC(=O)[C@@H](C)C(=O)[C@H](C(C)C)OC(=O)C[C@@H]1O [Aplidin, plitidepsin] (Pyruvoyl-P[dNMeL]T[X1]LP[NMeY](Me); ester 3-C)
in vitro activity against SARS-CoV-2 [2]: potent in vitro activity

C[C@@H]1O[C@@H](Cc2ccccc2)CC1[Si](c1ccccc1)(c1ccccc1)c1ccccc1 (some centres unmarked) [SPL-0]
EC50 ([3]; Alphacoronavirus 1, viral titration (plaque assay), ST cells, MOI 0.01, 24 h, read-out: EC50 against TGEV): 15.6 µM | bottom plateau, estimated viral titer [3, 17]: 0% | EC50 ([4]; Severe acute respiratory syndrome coronavirus 2, Vero C1008, immunofluorescence, MOI 0.01, 48 h, read-out: EC50 against SARS-CoV-2 in VeroE6 cells): 27.5 µM | bottom plateau, infected cells ([4]; VeroE6 cells, dose-response fit): 1.6% | EC50 ([5]; Enterovirus B, CVB3, viral titration (plaque assay), HeLa cells, MOI 0.01, 24 h, read-out: EC50 against CVB3): 2.95 µM | bottom plateau, estimated viral titer [5, 17]: 0% | CC50 at 48 h [6]: > 50 µM | amount of MHV RNA, % of the amount obtained in control cultures receiving no drug ([7]; 20 µM, MOI 0.01, 24 h): 17.0 ± 2.4% | EC50 ([7]; Murine coronavirus, RT-qPCR, inferred from single dose 20 µM, read-out: EC50 against MHV): < 20 µM | EC50 ([1]; Alphacoronavirus 1, 48 h): 13.1 µM | activity against TGEV (reversion of TGEV-induced cell death) ([1]; ST cells): partially reverts TGEV-induced cell death; also recorded: Active | bottom plateau, dead cells ([1]; ST cells): 16.1% | EC50 ([8]; Alphacoronavirus 1, RT-qPCR, ST cells, MOI 0.01, 24 h, read-out: EC50 against TGEV): 4.35 µM | bottom plateau, viral RNA [8, 17]: 0% | percentage of dead cells at 48 h ([9]; ST cell cultures not inoculated with TGEV): < 12% and 2.5-12.0% | cytotoxic effects ([9]; ST cells, no virus, result in words): no detectable cytotoxic effects | CC50 at 48 h [10]: > 100 µM | estimated bottom plateau, infected cells ([11]; A549 cells, dose-response fit): -0.37% | EC50 ([11]; Severe acute respiratory syndrome coronavirus 2, A549, immunofluorescence, MOI 0.01, 72 h, read-out: EC50 against SARS-CoV-2 in A549 cells): 12.9 µM | cytotoxic effects ([12]; A549 cells, result in words): no cytotoxic effects | percentage of viable cells at 48 h ([12]; uninfected A549 cells): > 89% and 89.0-100% | CC50 at 48 h [13]: > 50 µM | amount of OC43 RNA, % of the amount obtained in control cultures receiving no drug ([14]; 20 µM, MOI 0.01, 4 days): 4.16 ± 0.95% | EC50 ([14]; Betacoronavirus 1, OC43, RT-qPCR, inferred from single dose 20 µM, read-out: EC50 against OC43): < 20 µM | percentage of viable cells at 48 h ([15]; uninfected VeroE6 cells): > 85% and 85.0-93.3% | cytotoxic effects ([15]; VeroE6 cells, result in words): no cytotoxic effects

CCCCCCCCCC[C@H]1CC([Si](c2ccccc2)(c2ccccc2)c2ccccc2)[C@H](C)O1 (stereo partly drawn) [SPL-1, 2,5-trans-(5-decyl-2-methyltetrahydrofuran-3-yl)triphenylsilane]
activity against TGEV (reversion of TGEV-induced cell death) ([1]; ST cells): did not revert TGEV-induced cell death; also recorded: Inactive

CC(C)C[C@H]1C[C@@H]([Si](c2ccccc2)(c2ccccc2)c2ccccc2)[C@H](CCCCl)O1 [SPL-6]
EC50 [1, 16]: 30.5 µM | activity against TGEV (reversion of TGEV-induced cell death) ([1]; ST cells): partially reverts TGEV-induced cell death; also recorded: Active | bottom plateau, dead cells ([1]; ST cells): 14.8%
